The values below come from US5358959A, “Methods for treating arteriosclerosis” (President and Fellows of Harvard University, priority 1993, dated 1994).

For one experiment, the system named is cell proliferation. Description: Cell proliferation with inhibitors of other transport systems (general statement). The settings on record: inhibitors of other transport systems activated by mitogens. The class given is cell-based.
Experiment [1] addresses T1, Ca^++ activated K channel (Homo sapiens, UniProt O15554).
T1 construct: endogenous in cells; host or cells: human erythrocytes (washed red blood cells from heparinized blood)
Description: Inhibition of the Ca++ activated K channel of human erythrocytes (86Rb influx, K efflux). The settings on record: for inhibition of Ca++ activated 86Rb influx by other antimycotics and related compounds / order of inhibitory potency, Ca++ activated 86Rb influx: human erythrocytes, FIG. 4. The class given is cell-based. Here is the method: Preparation of Human Red Blood Cells: Blood is collected in heparinized tubes and centrifuged in a Sorvall centrifuge (RB 5B, Du Pont Instruments,Newtown, Conn.) at 5° C. for 10 minutes at 3000 g. Plasma and buffy coat are carefully removed and the cells washed four times with a washing solution containing 150 mM choline chloride (Sigma Co), 1 mM MgC12 (Sigma Co), 10 mM Tris-MOPS (Sigma, Ca), pH 7.4 at 4° C.(CWS). An aliquot of cells is then suspended in an approximately equal volume of CWS, and from this original cell suspension hematocrit (Hct) and hemoglobin (optical density at 540 nm) are determined.
Methods to Test Inhibitors of the Ca^++ Activated K: To test inhibitors of the Ca^++ activated K channel, the channel is activated using the calcium ionophore A23187 (Chalbiochem).
By Atomic Absorption Spectrometry: Washed human erythrocyte are suspended at an hematocrit =1% in CWS containing 0.150 mM CaCl2 (Sigma Co) Aliquots of 1 ml are removed at 0, 3 and 5 minutes, layered on top of 0.3 ml of the oil n-butyl phthalate (Fair Lane, N.J.) placed in an Eppendorf microtube (Fisher) and then centrifuged in a micro centrifuge for 20 seconds. At time 5.30 minutes, ionophore A23187 (1 μM final concentration) is added and samples removed and spin down through phthalate at times 6, 7, 8 and 9 minutes. The supernatant on top of the oil layer is removed and its K+ concentration is measured by atomic absorption spectrometry using a Perking Elmer model 5000 spectrometer (Perkin Elmer Corp., Norwolk, Conn.). The efflux of K+ (mmol/1 cells/h) in the absence and presence of the inhibitor is calculated from the slope of the curves relating the K+ concentration in the supernatants (mmol/1 cells) vs. time (min.).
By radioisotopic measurement of ^86 Rb influx. The incubation medium is the same but contains 2 mM KCl and 1 μCi/ml of the radioactive tracer ^86 Rb. After spinning the samples through the phthalate layer, the tubes are rapidly frozen (-80° C.) by immersion in methanol-dry ice, the tips of the tubes containing the packed red cells cut, and counted in a Packard Gamma Counter.

Experiment [2] relates to Rat vascular smooth muscle cells. The experiment can be described thus: cells. The class given is cell-based. The settings on record: for inhibition of DNA synthesis by other inhibitors of the Ca++ activated K channel: bFGF-stimulated. How it is done: (§1) DNA synthesis assessed by the uptake of [3H]thymidine: Cells are grown in either 48 or 96 wells plates (Costar, Cambridge, Mass.) at 10^4 and 0.8 10^3 cells per well, respectively, and grown in Dubelcco's modified Eagle's medium (DME, Gibco, Grand Island, N.Y.) supplemented with 10% heat-inactivated calf serum; they are kept at 37° C. in 5% CO2. When they reach confluence, usually between 3 and 4 days, the medium is replaced with DME 0.5% serum to make them quiescent, and mitogenesis assays are performed 24 hours later.
(§2) Quiescent cells are exposed to a mitogenic stimulus, such as 10% serum, PDGF (Sigma Co. St. Louis, Mo.), bFGF (Upstate Biotechnologies, Lake Placid, N.Y.), or other appropriate mitogen according to the cell line, and 3 hours 1 later μCi/ml of [3H]thymidine (Dupont, Billerica, Mass.) is added to the wells, and the cells maintained at 37° C./5% CO2 for additional 21 hours. Then the cells are washed 3 times with DME medium and the acid-precipitable radioactivity is extracted with cold 10% TCA (Sigma, Co). After neutralization with 0.3N NaOH (Sigma Co.), aliquots are counted in a Packard Tri-Carb Scintillation counter (Packard Instrument, Downer's Grove, Ill.).
Rat vascular smooth muscle cells (murine cell line): Quiescent cells were stimulated with purified growth factors (PDGF and bFGF, […]) and synthesis of DNA was assessed by the incorporation of [3H]thymidine measured 24 hours later.
Cells were stimulated using […] bFGF. […] (FIG. 2)
Other antimycotics were tested for their inhibition of bFGF-stimulated DNA synthesis in rat vascular smooth muscle cells.

In the next experiment the test system is endothelial cells. Description: Proliferation of endothelial cells (general statement). It is filed as cell-based. To be noted: for inhibition of proliferation of endothelial cells: specific inhibitors of the Ca++ activated potassium channel.
Experiment [3] relates to vascular smooth muscle cells. Description: Proliferation of vascular smooth muscle cells (general statement). The class given is cell-based. The settings on record: for inhibition of proliferation of vascular smooth muscle cells: specific inhibitors of the Ca++ activated potassium channel.
Experiment [4] has as its system Bovine endothelial (BAEC). The experiment can be described thus: Cell growth (flask surface covered by the cell monolayer), bovine endothelial cells. The class given is cell-based. To be noted: CLT 10 μM; 48 hs; DME 10% calf serum; control 90±2%. How it is done: (§3) Measurement of cell density in culture plates: Cells of a specific test cell line are seeded at precisely the same low density in culture plates and incubated for approximately 12 hours in DME 10% serum, or other culture medium depending on the cell line tested. […] Alternatively, the cells can be detached from the plate by incubation with trypsin (Sigma, Co.) […] in ethylene diaminotetraacetic acid (ECTA; Sigma, Co); then the cells are counted in an hemocytometer chamber (Fisher, Pittsburgh, Pa.).
(§4) After 48 hs cell growth was assessed by optic miscroscopy calculating the surface of the culture flask covered by the cell monolayer.

For experiment [5], the system named is human umbilical vein (HUVEC). Description: Cell growth (flask surface covered by the cell monolayer), human umbilical vein cells. The settings on record: CLT 10 μM; 48 hs; DME 10% fetal calf serum; control 90±2%. The class given is cell-based. How it is done:
as §3, §4

The next experiment concerns Swiss 3T3. The experiment can be described thus: Proliferative response of quiescent 3T3 cells to conditioned media of MAC treated endothelial cells. It is filed as cell-based, murine. The settings on record: 10 μM CLT; FIG. 5. How it is done: (§5) When endothelial cells (EC) in culture (both BAEC and HUVEC) are treated with terminal complement components to form the MAC (membrane attack complex of complement), they release into the culture medium a potent mitogenic activity that stimulates the proliferation of quiescent cells used as indicators of the mitogens. Both, quiescent Swiss 3T3 and vascular smooth muscle cells are stimulated by the mitogens released form EC in response to the MAC (FIG. 5; Halperin et al. unpublished observation). Moreover, immunoprecipitation with specific antibodies has documented that both PDGF and bFGF released from the EC contribute in approximately equal proportion to the mitogenic activity induced by the MAC (data not shown).

For experiment [6], the system named is vascular smooth muscle cells. The experiment can be described thus: Proliferative response of vascular smooth muscle cells to conditioned media of MAC treated endothelial cells. The class given is cell-based. The settings on record: 10 μM CLT; FIG. 5. Here is the method:
as §5

The next experiment concerns Swiss 3T3 cells. Description: DNA synthesis ([3H]thymidine incorporation) in normal fibroblasts. It is filed as cell-based, murine. Here is the method: as §1, §2
Swiss 3T3 cells (murine fibroblast cell line): Quiescent cells were stimulated with purified growth factors (PDGF and bFGF, […]) and synthesis of DNA was assessed by the incorporation of [3H]thymidine measured 24 hours later.

For experiment [7], the system named is testicular and adrenal synthesis of steroid hormones. The settings on record: cited from earlier work.
The mark [8] stands for this setting: 60 μmol A23187/L cell and 100 μM CaCl2.

Where two headings read alike, the source gives them in different places.

Turning to `C[C@@H]1O[C@@H](O[C@H]2C[C@@H](O)[C@]3(CO)[C@H]4[C@H](O)C[C@]5(C)[C@@H](C6=CC(=O)OC6)CC[C@]5(O)[C@@H]4CC[C@]3(O)C2)[C@H](O)[C@H](O)[C@H]1O` [ouabain], in the experiment on cell proliferation, the “inhibition of cell proliferation” value is “do not inhibit cell proliferation”.
For `Cc1ncc([N+](=O)[O-])n1CC(O)CCl` (centres unmarked) [ornidazole], the “inhibition of Ca++ activated 86Rb influx by other antimycotics and related compounds” value in [1] is reported as “no inhibition”.
As to `CCS(=O)(=O)CCn1c([N+](=O)[O-])cnc1C` [tinidazole], the “inhibition of Ca++ activated 86Rb influx by other antimycotics and related compounds” value in experiment [1] was “no inhibition”.
`Clc1ccc(COC(Cn2ccnc2)c2ccc(Cl)cc2Cl)c(Cl)c1` (centres unmarked) [MCZ, miconazole]: in experiment [2] (10 μM, FIG. 3), the “order of inhibitory potency, bFGF-stimulated DNA synthesis” value is on record as “ECZ more potent than MCZ”. Moreover, in experiment [2] (antimycotics at 10 μM, FIG. 3), the “inhibition of bFGF-stimulated DNA synthesis” value was “inhibited DNA synthesis”. Besides, in experiment [1], the “order of inhibitory potency, Ca++ activated 86Rb influx” value is reported as “both of these were more than econazole”.
In the case of Charybdotoxin, in experiment [2] (FIG. 3), the “inhibition of DNA synthesis by other inhibitors of the Ca++ activated K channel” value is given as “failed to inhibit DNA synthesis”. Besides, the “inhibition of proliferation of endothelial cells” value in the experiment with endothelial cells is “do not inhibit proliferation”. The “inhibition of proliferation of vascular smooth muscle cells” value in [3] was “do not inhibit proliferation”.
Consider `Cc1ncc([N+](=O)[O-])n1CCO` [metronidazole], for which, in experiment [1], the “inhibition of Ca++ activated 86Rb influx by other antimycotics and related compounds” value is recorded as “only marginal”.
The same measure, in the same setting: the result for `OC(Cn1cncn1)(Cn1cncn1)c1ccc(F)cc1F` [fluconazole] reads “no inhibition”.
Take “kaliotoxin: specific inhibitors of the Ca^++ activated potassium channel”: the “inhibition of DNA synthesis by other inhibitors of the Ca++ activated K channel” value in experiment [2] (FIG. 3) is recorded as “failed to inhibit DNA synthesis”. Besides, the “inhibition of proliferation of endothelial cells” value in the experiment with endothelial cells was “do not inhibit proliferation”. Further, the “inhibition of proliferation of vascular smooth muscle cells” value in experiment [3] is reported as “do not inhibit proliferation”.
With `N=C(N)NC(=O)c1nc(Cl)c(N)nc1N` [amiloride], the “inhibition of cell proliferation” value with cell proliferation is recorded as “do not inhibit cell proliferation”.
`Clc1ccccc1C(c1ccccc1)(c1ccccc1)n1ccnc1` [CLT, clotrimazole]: in [2], the “dose response of inhibition of DNA synthesis” value is reported as “Inhibition was dose dependent”, the “inhibition of DNA synthesis” value is listed as “complete inhibition”, the “inhibition of PDGF stimulated DNA synthesis” value is given as “completely inhibited” and the “inhibition of bFGF stimulated DNA synthesis” value is given as “completely inhibited”. Also, in [2], the “order of inhibitory potency, bFGF-stimulated DNA synthesis” value is on record as “CLT more potent than ECZ” and the “reversibility of the inhibition of DNA synthesis (toxic, non-specific effect)” value is “reversed by removing CLT”. Further, the “inhibition of bFGF-stimulated DNA synthesis” value in [2] (10 µM) is reported as “inhibited DNA synthesis”. In addition, the inhibition (as a rule, the drop in the measured response relative to a control, in per cent) at 1 µM in experiment [2] (Rattus norvegicus, read-out: inhibition of DNA synthesis) was 45%. Moreover, in experiment [4], the “flask surface covered by cells” value was “less than 10%”. The “flask surface covered by cells” value in experiment [5] was “less than 10%”. Moreover, in experiment [1] (setting [8]), the “inhibition of Ca++ activated 86Rb influx” value was “markedly inhibited” and the “inhibition of Ca++ activated K efflux” value is reported as “markedly inhibited”. Besides, the “order of inhibitory potency, Ca++ activated 86Rb influx” value in experiment [1] is given as “clotrimazole more than miconazole”. Also, the “inhibition of proliferative response to mitogens released from EC by MAC” value with Swiss 3T3 was “completely inhibited”. The “inhibition of proliferative response to mitogens released from EC by MAC” value in experiment [6] was “completely inhibited”. For the same compound, the “inhibition of PDGF stimulated DNA synthesis” value in the experiment with Swiss 3T3 cells (10 μM CLT, PDGF, 5 μM, 24 hours) is given as “completely inhibited”. In addition, the “inhibition of bFGF stimulated DNA synthesis” value in the experiment with Swiss 3T3 cells (10 μM CLT, bFGF, 5 μM, 24 hours) was “completely inhibited”. For the same compound, the “reversibility of the inhibition of DNA synthesis (toxic, non-specific effect)” value in the experiment on Swiss 3T3 cells (removing CLT and re-stimulating with the growth factor) is “reversed by removing CLT”.
With `Clc1ccc(COC(Cn2ccnc2)c2ccc(Cl)cc2Cl)cc1` (centres unmarked) [ECZ, econazole], the “order of inhibitory potency, bFGF-stimulated DNA synthesis” value in experiment [2] (10 μM, FIG. 3) was “ECZ more potent than MCZ”. Besides, in experiment [2] (antimycotics at 10 μM, FIG. 3), the “inhibition of bFGF-stimulated DNA synthesis” value was “inhibited DNA synthesis”. For the same compound, the “order of inhibitory potency, Ca++ activated 86Rb influx” value in experiment [1] was “both of these were more than econazole”.
Consider `CC(=O)N1CCN(c2ccc(OCC3COC(Cn4ccnc4)(c4ccc(Cl)cc4Cl)O3)cc2)CC1` (centres unmarked) [Ketoconazole, ketoconazole], for which, in the experiment with endothelial cells (ketoconazole, no data given), the “usefulness for inhibiting endothelial cell proliferation” value is given as “not useful”. The “usefulness for inhibiting smooth muscle cell proliferation” value in [3] (ketoconazole, no data given) is recorded as “not useful”. Also, the “treatment of prostate cancer” value in experiment [7] (by blocking steroid synthesis) is given as “effective in treating some prostate cancers”. In experiment [7] (hormonal adjuvant for prostate cancer treatment), the plasma testosterone entry is on record as “reduces plasma testosterone to castration levels”. The “testicular and adrenal synthesis of steroid hormones, including testosterone” value in [7] (in high doses) was “appears to inhibit”.
